Source: the supplement of paper PMC10702517
± gives the standard deviation.

Assays:
[1] = chemical recovery from spiked human plasma; higher = better extraction; conditions: pooled human plasma
[2] = chemical recovery into PDMS from spiked human plasma; higher = better extraction; conditions: pooled human plasma, extraction method: PES with PDMS
[3] = chemical recovery by SPE of plasma after PDMS sampling; higher = better extraction; conditions: pooled human plasma, extraction method: HLB SPE of plasma after PES
[4] = extraction method: SPE only (HLB 96-well), PES comparison experiment
[5] = extraction method: PES+SPE (3 d PDMS equilibration then HLB SPE)
[6] = extraction method: SPE only (HLB 96-well)
[7] = extraction method: solvent precipitation (ACN + hexane)
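Throughout, for chemical recovery by SPE of plasma after PDMS sampling: over 400 spiked chemicals quantified by LC-HRMS or GC-HRMS via internal standard calibration, recovery relative to spike mix added to unspiked plasma extract to correct matrix effects.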

Row | chemical recovery [1, 4] [%] | chemical recovery into PDMS ([2]; equilibration time (d): 1) [%] | chemical recovery into PDMS ([2]; equilibration time (d): 3) [%] | chemical recovery into PDMS ([2]; equilibration time (d): 6) [%] | chemical recovery by SPE of plasma ([3]; equilibration time (d): 1) [%] | chemical recovery by SPE of plasma ([3]; equilibration time (d): 3) [%] | chemical recovery by SPE of plasma ([3]; equilibration time (d): 6) [%] | chemical recovery [1, 5] [%] | chemical recovery [1, 6] [%] | Structure (SMILES) | chemical recovery [1, 7] [%]
1 | 44.8 ± 7 | 34.4 ± 3.3 | 39 ± 1.6 | 39.5 ± 1.2 | 7.2 ± 0.97 | 4.61 ± 0.52 | 2.35 ± 0.21 |  |  | CC(=O)[C@@]1(O)CC[C@H]2[C@@H]3C=C(Cl)C4=CC(=O)[C@@H]5C[C@@H]5[C@]4(C)[C@H]3CC[C@@]21C [Cyproterone] | 
2 | 51 ± 8.1 | 11.2 ± 0.61 | 16.9 ± 1.5 | 18.5 ± 2.4 | 30.4 ± 3.7 | 26.3 ± 3.2 | 19 ± 2.4 | 61.1 ± 5.3 | 45.4 ± 3.1 | CC(C)Nc1nc(N)nc(Cl)n1 [Desethylatrazine] | 45 ± 15
3 | 46.9 ± 5.4 | 38 ± 1.5 | 40.9 ± 0.82 | 42.7 ± 1.9 | 10 ± 1.1 | 9.29 ± 1 | 6.03 ± 0.45 | 40.7 ± 4.8 | 42.1 ± 2.3 | CC(C)(C)Nc1nc(N)nc(Cl)n1 [Desethylterbutylazine] | 
4 |  | 0.203 ± 0.15 | 0.0639 ± 0.025 | 0.452 ± 0.57 | 3.67 ± 0.83 | 4.32 ± 0.44 | 2.93 ± 0.67 | 2.22 ± 0.35 | 30.1 ± 1.7 | Clc1ccc2c(c1)CCc1cccnc1C2=C1CCNCC1 [Desloratadine] | 59.9 ± 1.8
5 | 6.79 ± 4.2 | 0.0144 ± 0.043 | 0.133 ± 0.038 | 0.161 ± 0.2 | 2.76 ± 0.75 | 2.06 ± 0.86 | 3.77 ± 0.81 |  |  | Nc1cn[nH]c(=O)c1Cl [Desphenyl chloridazon] | 
6 | 50.3 ± 3.3 | 0.000876 ± 0.0015 | 0.000445 ± 0.00077 |  | 46.9 ± 7.3 | 53.3 ± 3.2 | 48 ± 4.5 |  |  | COCCN(C(=O)CS(=O)(=O)O)c1c(C)cccc1C [Dimethachlor ESA] | 
7 | 51.3 ± 3.7 |  |  | 0.00348 ± 0.006 | 60.2 ± 9.2 | 69.4 ± 2.3 | 61.4 ± 2.8 |  | 28.1 ± 6.4 | COCCN(C(=O)C(=O)O)c1c(C)cccc1C [Dimethachlor OA] | 56.8 ± 7.6
8 | 50.3 ± 9.1 | 42.8 ± 4.3 | 44.9 ± 3.4 | 43.2 ± 1.9 | 3.56 ± 3.1 | 9.02 ± 0.83 | 7.35 ± 0.63 | 60.1 ± 20 | 35.7 ± 4 | CNC(=O)/C(=N/OC)c1ccccc1COc1cc(C)ccc1C [Dimoxystrobin] | 72.7 ± 5.8
9 |  | 3.85 ± 3.4 | 5.97 ± 3 | 6.08 ± 2.5 | 0.988 ± 0.82 | 0.992 ± 0.41 | 0.785 ± 0.37 |  | 7.45 ± 4.7 | CCCCCCCCc1cccc(Nc2ccccc2)c1CCCCCCCC [Dioctyldiphenylamine] | 
10 | 50.3 ± 5.5 | 0.00464 ± 0.0041 | 0.0114 ± 0.013 |  | 0.353 ± 0.014 | 0.464 ± 0.19 | 0.236 ± 0.039 | 0.391 ± 0.13 | 44.7 ± 3 | CN(C)CCOC(c1ccccc1)c1ccccc1 [Diphenhydramine] | 52.4 ± 4.6
11 |  | 33.8 ± 1.2 |  | 40.4 ± 12 |  | 10.1 ± 5.8 | 5.98 ± 9.4 |  | 20.4 ± 5.3 | c1ccc(Cc2ccccc2)cc1 [Diphenylmethane] | 
12 | 55.9 ± 7.4 | 32.6 ± 1.8 | 36.3 ± 1.6 | 37 ± 2 | 8.44 ± 0.83 | 7.52 ± 0.91 | 4.83 ± 0.33 | 56.2 ± 5 | 48.9 ± 3.2 | CN(C)C(=O)Nc1ccc(Cl)c(Cl)c1 [Diuron] | 74.6 ± 2.9
13 | 44.3 ± 4.7 | 1.2 ± 0.66 | 1.32 ± 1 | 1.41 ± 0.46 | 0.166 ± 0.13 | 0.11 ± 0.031 | 0.044 ± 0.0048 |  | 29 ± 0.98 | CC1CN(C2CCCCCCCCCCC2)CC(C)O1 (centres undefined) [Dodemorph] | 73 ± 8.6
14 | 42.6 ± 8.3 | 41.9 ± 2.5 | 45.7 ± 3 | 44.9 ± 1.4 | 3.88 ± 0.83 | 2.16 ± 0.41 | 1.04 ± 0.16 |  |  | C[C@]12CCC(=O)C=C1[C@@H]1C[C@@H]1[C@H]1[C@@H]3[C@@H]4C[C@@H]4[C@@]4(CCC(=O)O4)[C@@]3(C)CC[C@@H]12 [Drospirenone] | 

Row | Structure (SMILES) | chemical recovery [1, 4] [%] | chemical recovery into PDMS ([2]; equilibration time (d): 1) [%] | chemical recovery into PDMS ([2]; equilibration time (d): 3) [%] | chemical recovery into PDMS ([2]; equilibration time (d): 6) [%] | chemical recovery by SPE of plasma ([3]; equilibration time (d): 1) [%] | chemical recovery by SPE of plasma ([3]; equilibration time (d): 3) [%] | chemical recovery by SPE of plasma ([3]; equilibration time (d): 6) [%] | chemical recovery [1, 5] [%] | chemical recovery [1, 6] [%] | chemical recovery [1, 7] [%]
15 | Nc1nc(N)nc(NC2CC2)n1 [Cyromazine] |  |  |  | 1.4 ± 0.44 |  |  | 5.59 ± 4.5 | 3.13 ± 0.61 | 2.36 ± 2.5 | 72.9 ± 2.3
16 | CN(C)NC(=O)CCC(=O)O [Daminozide] | 3.23 ± 3.4 |  |  | 0.0133 ± 0.023 | 1.49 ± 2.5 | 0.206 ± 0.36 | 0.536 ± 0.28 |  |  | 
17 | CN1C(=O)CN=C(c2ccccc2)c2cc(Cl)ccc21 [Diazepam] | 45.5 ± 6.9 | 34.5 ± 1.3 | 40.4 ± 3.4 | 39.3 ± 2 | 9.29 ± 2 | 6.7 ± 0.88 | 4.56 ± 0.4 | 66.5 ± 10 | 56.2 ± 2.7 | 85.2 ± 3.9
18 | CCOP(=S)(OCC)Oc1cc(C)nc(C(C)C)n1 [Diazinon] | 38 ± 6.1 | 31.2 ± 2.3 | 34 ± 2.4 | 34 ± 0.57 | 0.161 ± 0.14 | 0.223 ± 0.071 | 0.073 ± 0.064 |  |  | 62.9 ± 4.1
19 | Oc1ccc(Cl)cc1Cc1cc(Cl)ccc1O [Dichlorophen] | 50.4 ± 7.8 | 0.919 ± 0.12 | 1.88 ± 0.2 | 2.38 ± 0.74 | 53.2 ± 21 |  |  | 78.9 ± 10 |  | 45.7 ± 2.1
20 | OC(c1ccc(Cl)cc1)(c1ccc(Cl)cc1)C(Cl)(Cl)Cl [Dicofol] | 14.4 ± 2.8 |  | 56.9 ± 18 |  | 11.5 ± 8.1 | 15 ± 1.5 | 15.2 ± 3.4 |  | 0.108 ± 0.017 | 23.1 ± 0.7
21 | ClC1=C(Cl)[C@]2(Cl)[C@@H]3[C@@H]4C[C@@H]([C@H]5O[C@@H]45)[C@@H]3[C@@]1(Cl)C2(Cl)Cl [Dieldrin] | 8.32 ± 1.5 |  |  | 97 ± 29 | 0.594 ± 1 |  |  |  | 0.809 ± 0.21 | 22.5 ± 1.4
22 | O=C(NC(=O)c1c(F)cccc1F)Nc1ccc(Cl)cc1 [Diflubenzuron] |  | 36.3 ± 2.5 | 38.3 ± 2.3 | 40.4 ± 5 | 8.71 ± 3.2 | 8.73 ± 0.29 | 4.73 ± 0.29 |  | 29.8 ± 6.3 | 48.6 ± 2.1
23 | COCCN(C(=O)CCl)c1c(C)cccc1C [Dimethachlor] | 47.8 ± 7.7 | 34.9 ± 0.41 | 37.6 ± 4.3 | 38 ± 0.68 | 2.27 ± 0.1 | 2.96 ± 0.38 | 1.66 ± 0.09 | 45.9 ± 7 | 46.6 ± 1.6 | 63.4 ± 4.6
24 | COCC(C)N(C(=O)CCl)c1c(C)csc1C (centres undefined) [Dimethenamid] | 46.6 ± 8.4 | 41.5 ± 0.65 | 46.1 ± 4.6 | 44.9 ± 2.2 | 1.45 ± 0.053 | 2.08 ± 0.36 | 1.25 ± 0.1 | 59.7 ± 19 | 53.9 ± 1.1 | 55.4 ± 3.7
25 | O=S(=O)(c1ccccc1)c1ccccc1 [Diphenylsulfone] | 15.5 ± 1.1 | 56.9 ± 12 |  |  | 5.48 ± 3.7 | 9.14 ± 0.92 | 7.53 ± 2.3 |  | 0.293 ± 0.035 | 16.4 ± 3.6
